Test results from patent US20240156972A1 (priority 2021, published 2024).
Numbered stars: 1 amine (or outer) side, 2 acyl side, 3 side chain; on linkers, the order of the positions; unused ones are H or OH. Square brackets hold non-standard residues; d marks the D form. Peptide text beside a SMILES is read from it. X1 = O=C(C(Cc1cccc(S(=O)(=O)F)c1)N[*:1])[*:2]; Lys(N3) = [N-]=[N+]=NCCCC[C@H](N)C(=O)O; X2 = N=C(N)CCCC[C@H](N[*:1])C(=O)[*:2]; Y‑OSO2F = fluorosulfate Tyr; N3‑K = azido-Lys

Assays:
[1] = Stability of covalent antibody-binding peptides in 1×PBS by LC-HRMS; type: physicochemical; conditions: 500 μM, room temperature
Method: Liquid chromatography-high resolution mass spectrometry (LC-HRMS) data was obtained on a BRUKER MicroTOF II mass spectrometer. Samples were dissolved in 1×PBS at 500 μM concentrations and were monitored for stability at room temperature over indicated periods of time. Specific m/z −20 amu (loss of H^+ and F^−) and m/z −2 amu (F/OH exchange) masses were monitored to probe off-pathway cyclization and hydrolysis reactions, respectively.
To evaluate the stability of peptide 5 (gDR(F10FSY)), the peptide (500 μM) was incubated in 1×PBS at room temperature and analyzed by LC-HRMS at 0, 24, 48 and 72 hours (FIG. 83). […] Hydrolyzed peptide appeared to elute just before intact peptide after 3 days of incubation.
To evaluate the stability of peptide 7 (ASF-gDR), the peptide (500 μM) was incubated in 1×PBS at room temperature and analyzed by LC-HRMS at 0, 24, 48 and 72 hours.

[2] = Stability of aryl sulfonyl fluoride group in PBS by 19F NMR; type: physicochemical; conditions: PBS (90% PBS), 10% D2O, room temperature, F− appearance, read-out: half-life of sulfonyl fluoride hydrolysis (converted)
Method: A 700 MHz NMR was used to measure ^19F NMR spectra. Bruker TopSpin 4.0.9 was used to process and analyze spectra. GraphPad Prism 8 software was used to visualize and perform non-linear regression of acquired data.
Peptide 7 (ASF-gDR) was used to investigate the stability of the meta-aryl sulfonyl fluoride (ASF) group in 1×PBS at room temperature. The sample was prepared at a 0.5 mM concentration in 90% PBS, 10% D2O. A 700 MHz NMR was used to monitor sulfonyl fluoride disappearance and fluoride (F^− (aq)) appearance overtime, relative to a TFA internal standard. To quantify fluoride loss and gain, peaks were positively phased and integrated relative to the TFA internal standard, which was held constant at three fluoride atoms. A plot of fluoride leaving group appearance over time was fitted with the first order decay equation.
Half-life was calculated from a plot of integrated F^− over time using Equation 1.

[3] = tested on: PSMA-expressing human embryonic kidney (HEK) cells; assay: ARM 1.2-mediated ADCP by U937 human monocytes, 2-color flow cytometry; type: cell-based
Method: ADCP of PSMA-expressing human cells by human monocytes was assessed in the presence of ARM 1.2 and anti-gD1 mouse IgG2a antibody (FIG. 12). ADCP was determined by 2-color flow cytometry assays, where target cell phagocytosis was measured by double positive cell events consisting of FL-1 dye-labeled U937 human monocytes and FL-4 dye-labeled engineered human embryonic kidney (HEK) cells expressing PSMA.
Robust ADCP was only observed when cell surface PSMA and anti-HSV antibody are both present (HEK+_EXP).

CSCC[C@H](NC(=O)[C@H](CCCCC(=N)N)NC(=O)[C@H](CC(C)C)NC(=O)[C@H](CCCCN=[N+]=[N-])NC(=O)C(Cc1cccc(S(=O)(=O)F)c1)NC(C)=O)C(=O)N[C@@H](C)C(=O)N[C@@H](CC(=O)O)C(=O)N1CCC[C@H]1C(=O)N[C@@H](CC(N)=O)C(=O)N[C@@H](CCCNC(=N)N)C(=O)N[C@@H](Cc1ccccc1)C(=O)N[C@@H](CCCNC(=N)N)C(=O)NCC(=O)N[C@@H](CCCNC(=N)N)C(=O)N[C@@H](CC(=O)O)C(=O)N[C@@H](CC(C)C)C(N)=O (some centres unmarked) [Peptide 7] (Ac-[X1][Lys(N3)]L[X2]MADPNRFRGRDL-NH2)
SuFEx hydrolysis ([1]; after 24 hours): ~50% | half-life at 0.5 mM [2]: 8.71 h

CSCC[C@H](NC(=O)[C@@H](C)NC(=O)[C@@H](CC(=O)O)NC(=O)[C@H]1CCCN1C(=O)[C@@H](CC(N)=O)NC(=O)[C@H](CCCNC(=N)N)NC(=O)[C@@H](Cc1ccccc1)NC(=O)[C@H](CCCNC(=N)N)NC(=O)CNC(=O)[C@H](CCCCN)NC(=O)[C@@H](CC(=O)O)NC(=O)[C@H](CC(C)C)NC(=O)[C@H](CCCCn1cc(COCCOCCOCCOCCOCCOCCOCCOCCNC(=O)NCCCC[C@H](NC(=O)N[C@@H](CCC(=O)O)C(=O)O)C(=O)O)nn1)NC(C)=O)C(=O)N[C@H](CCCCN)C(=O)N[C@@H](CC(C)C)C(N)=O [ARM 1.2, GUL-PEG8-HSVqD1]
ADCP ([3]; HEK+_EXP: cell surface PSMA and anti-HSV antibody both present): Robust ADCP | ADCP in control samples ([3]; isotype IgG, no antibody, free competitor, or HEK cells without PSMA): complete lack of ADCP

Ac-(N3-K)-LRMADPNR-(Y-OSO2F)-RGRDL ({Ac-N3‑K}-LRMADPNR-{Y‑OSO2F-Arg-Gly-Arg-Asp-Leu-NH2}) [Peptide 5]
stability by LC-HRMS ([1]; 0-72 hours): stable compound
